Measured values from article PMC2719696, “Kinetics and Cellular Site of Glycolipid Loading Control the Outcome of Natural Killer T Cell Activation” (Immunity, 2009).

Tests used:
[1] = target: T1, mCD1d (Mus musculus, UniProt P11609); test: mAb L363 surface staining of JAWS II cells by flow cytometry (kinetics and pulse-chase); type: cell-based; conditions: for L363 surface staining over time: JAWS II cells, 250 nM glycolipid, 0.5, 4 and 18 hr; for formation of mCD1d-αGalCer surface complexes in pulse-chase analysis: JAWS II cells pulsed 500 nM for 1.5 hr, 8 hr chase
T1 construct: host or cells: JAWS II (C57BL/6.Trp53-/- derived dendritic cell line)
T1 sequence (P11609 22-336): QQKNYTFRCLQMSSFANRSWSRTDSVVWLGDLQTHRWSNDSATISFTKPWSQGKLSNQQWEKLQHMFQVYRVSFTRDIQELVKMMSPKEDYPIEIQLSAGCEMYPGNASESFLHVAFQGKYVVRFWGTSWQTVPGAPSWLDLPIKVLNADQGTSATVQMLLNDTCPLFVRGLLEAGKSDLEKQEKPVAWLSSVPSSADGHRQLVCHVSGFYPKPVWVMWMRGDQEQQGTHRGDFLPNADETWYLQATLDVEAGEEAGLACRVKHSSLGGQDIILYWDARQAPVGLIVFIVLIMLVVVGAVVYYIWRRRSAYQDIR
T1 sequence (P01887 21-119 partner): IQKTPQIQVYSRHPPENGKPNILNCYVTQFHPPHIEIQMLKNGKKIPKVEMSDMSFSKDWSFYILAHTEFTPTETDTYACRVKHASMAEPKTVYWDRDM
Method: We studied this possibility directly by using a monoclonal antibody (L363) that specifically recognizes complexes of αGalCer bound to mCD1d ([Yu et al., 2007]). Mouse splenocytes were cultured with either αGalCer-C26:0 or representative Th2 cell-type cytokine-biasing analogs, and L363 staining was assessed on various cell types (Figure 3A). […] This was investigated further with more detailed kinetic studies in which immortalized mouse DC line JAWS II was cultured with each glycolipid and assessed for L363 surface staining at 0.5, 4, and 18 hr (Figure 3B). There was a striking correlation between rapid kinetics of glycolipid association with mCD1d and the ability to induce a Th2 cell-type cytokine response. […] In contrast, most analogs inducing Th2 cell-type cytokine responses gave strong L363 staining by 0.5 hr, which increased modestly or not at all with longer incubation. […] Experiments using responses of iNKT cells to analyze the kinetics of cell-surface appearance gave analogous results (Figure S5).
Figure 3 Direct Analysis of Presentation of αGalCer Analogs with Complex-Specific mAb Staining (A) Mouse splenocytes cultured with either vehicle only (0.02% DMSO) or with the indicated αGalCer analogs (100 nM) were harvested after 1 hr or 19 hr of incubation and stained with mAb L363 or anti-CD1d mAb 1B1 and with mAbs specific for CD11c, CD19, and F4/80 (Figure S4). Filled histograms show L363 staining of cells cultured with vehicle only, and open histograms show cells cultured with indicated glycolipids. At the left, the total CD1d staining with mAb 1B1 (open histograms) compared to isotype control mAb (filled histograms) are shown on cells cultured for 19 hr with DMSO only. (B) JAWS II cells were incubated with glycolipids (250 nM) for various times ranging from 0.5–18 hr as indicated, stained with mAb L363, and analyzed by flow cytometry. Dashed line histograms show L363 staining of cells incubated with medium only, and bold histograms show L363 staining of cells incubated with αGalCer analogs. (C) JAWS II cells were pulsed with indicated αGalCer analogs (500 nM) for 1.5 hr, washed extensively, and recultured at 37°C for various chase times. Upon harvesting, cells were placed on ice and subsequently stained with mAb L363 for flow cytometry analysis. Histogram overlays show L363 staining of cells pulsed initially with vehicle only (DMSO, dashed histograms) or with αGalCer analog (bold histograms). […] All results shown (A, B, and C) were representative of at least two independent experiments.
Recombinant CD1d proteins were produced and assembled into tetramers for staining as previously described ([Forestier et al., 2007]). To obtain optimally loaded tetramers for iNKT cell staining, we loaded mCD1d with αGalCer-C26:0 and -C24:0 in the presence of 0.05% Triton X-100 (Sigma-Aldrich) and loaded mCD1d with other glycolipids without Triton X-100. For loading of hCD1d, 0.05% Triton X-100 was included with αGalCer-C26:0, -C24:0, and -C20:4, whereas other glycolipids were loaded without Triton X-100. For surface staining of αGalCer/mCD1d complexes, murine splenocytes or JAWS II cells were incubated with 250 nM glycolipids for various times and then 0.2 μg/ml mAb L363 (Alexa Fluor 647 or biotin conjugated) was added directly to the culture for an additional 30 min at RT. In some experiments, additional fluorochrome-conjugated antibodies specific for leukocyte subpopulations were added for the last 15 min of incubation. All samples were analyzed with the FACSCalibur flow cytometer (BD Biosciences).

[2] = tested on: GM1-enriched lipid rafts; type: cell-based, mouse; conditions: JAWS II cells, 18 hr with 100 nM glycolipid

Compound | L363 surface staining over time [1] | formation of mCD1d-αGalCer surface complexes in pulse-chase analysis [1] | colocalization of L363 staining with CTxB staining [2]
CCCCCCCCCCCCCCCCCCCCCCCC(=O)NC(COC1OC(CO)C(O)C(O)C1O)C(O)C(O)CCCCC (centres unmarked) [OCH] | very weak L363 reactivity | – | –
CCCCCCCCCCCCCCC(O)C(O)C(COC1OC(CO)C(O)C(O)C1O)NC(=O)CCCCCCCCC (centres unmarked) [αGalCer-C10:0] | – | the complexes formed rapidly and began declining immediately during the chase period | extremely limited colocalization with CTxB staining
CCCCCC=CCC=CCCCCCCCCCC(=O)NC(COC1OC(CO)C(O)C(O)C1O)C(O)C(O)CCCCCCCCCCCCCC (centres unmarked) [αGalCer-C20:2] | – | the complexes formed rapidly and began declining immediately during the chase period | –
CCCCCCCCCCCCCCCCCCCCCCCC(=O)NC(COC1OC(CO)C(O)C(O)C1O)C(O)C(O)CCCCCCCCCCCCCC (centres unmarked) [αGalCer-C24:0] | strong L363 staining was detected only at 18 hr | – | –
CCCCCCCCCCCCCCCCCCCCCCCCCC(=O)NC(COC1OC(CO)C(O)C(O)C1O)C(O)C(O)CCCCCCCCCCCCCC (centres unmarked) [αGalCer-C26:0, reference compound] | strong L363 staining was detected only at 18 hr | formed slowly | strong colocalization with CTxB staining
